Data set [1] is described as follows: Peptide stability in simulated intestinal fluid (SIF). As to conditions: pig, simulated intestinal fluid, SIF, pH 6.8, pancreatin, 37° C., 10 μM; for remaining at 4 h, 10 µM: read-out: SIF (% remaining 4 h). The class given is in vitro ADME. On the procedure: (§1) SGF and SIF were prepared based on the United States Pharmacopeia specifications (Test Solutions, United States Pharmacopeia 35, NF 30, 2012). SGF was prepared by dissolving sodium chloride (0.2 g) in 50 mL of water. A volume of 0.7 mL of 10 M HCl was added to adjust the pH of the solution to 1.2 and the volume made up to 100 mL with water. 64 mg porcine pepsin (P7125, Sigma Aldrich) was gently dissolved into 20 mL preheated (37° C.) solution (3.2 g/L) immediately prior to the incubation. SIF was prepared by dissolving monobasic potassium phosphate (0.68 g) in 50 mL of water and adjusting the pH to 6.8 with 1 M NaOH. The volume was subsequently made up to 100 mL with water. 200 mg porcine pancreatin (P1625, Sigma Aldrich) was gently dissolved into 20 mL preheated (37° C.) solution (10 g/L) immediately prior to the incubation.
(§2) To initiate the incubations, 20 μL of peptide stock solution in 50% v/v isopropanol was deposited at the bottom of a well plate and 580 μL matrix solution was added to give a final substrate concentration of 10 μM. The incubation was performed at 37° C. with gentle shaking. 70 μL aliquots were removed at 0, 1 and 4 hours and quenched into 210 μL ice-cold precipitant solution (95% v/v acetonitrile with 0.1% v/v formic acid). After the last timepoint, the sampling plate was mixed for 10 min on a shaking table and centrifuged 10 min at 2200 g. 70 μL resulting supernatant was diluted with 150 μL water, mixed and centrifugated before analysis by liquid chromatography high resolution mass spectrometry. The zero sample was reinjected after the 4-hour sample to confirm that no drift in instrument sensitivity had occurred during the run. Percent remaining at each timepoint was calculated relative to timepoint zero based on absolute peak areas.
Compounds with a SIF stability (after 4 h) above 70% are considered highly SIF stable. Compounds with a SIF stability (after 4 h) between 30-70% (including 30% and 70%) are considered moderately SIF stable. Compounds with a SIF stability (after 4 h) below 30% are considered SIF unstable. SIF stability values above 100% are due to assay uncertainty and indicate the compound has not degraded.

The target in another data set is T1, human IL-23R (Homo sapiens, UniProt Q5VWK5).
T1 construct: Nanoluc luciferase (Nluc); secretion signal encoded by the plasmid (not specified); expressed in transfected cells; crude membranes used in the assay
T1 sequence (Q5VWK5 22-629): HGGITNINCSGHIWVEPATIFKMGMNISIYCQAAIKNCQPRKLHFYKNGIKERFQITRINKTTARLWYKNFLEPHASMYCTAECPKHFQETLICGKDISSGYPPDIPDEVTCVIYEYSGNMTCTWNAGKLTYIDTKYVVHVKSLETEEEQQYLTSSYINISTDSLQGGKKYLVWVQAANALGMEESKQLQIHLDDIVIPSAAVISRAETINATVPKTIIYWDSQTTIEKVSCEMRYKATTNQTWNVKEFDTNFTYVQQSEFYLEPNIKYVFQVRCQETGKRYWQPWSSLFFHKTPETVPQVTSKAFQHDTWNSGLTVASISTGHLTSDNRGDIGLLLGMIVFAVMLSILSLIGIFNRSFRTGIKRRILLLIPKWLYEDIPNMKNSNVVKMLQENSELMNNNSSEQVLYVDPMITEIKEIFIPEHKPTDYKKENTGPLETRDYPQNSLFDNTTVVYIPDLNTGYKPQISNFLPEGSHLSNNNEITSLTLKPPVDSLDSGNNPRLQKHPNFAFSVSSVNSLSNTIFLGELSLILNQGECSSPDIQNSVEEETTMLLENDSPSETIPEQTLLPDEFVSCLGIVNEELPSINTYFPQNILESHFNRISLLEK
As to the kind of experiment: Binding assay: displacement of fluorophore (TAMRA)-labelled reference compound from human IL-23R (BRET, Nluc-IL23R fusion protein membranes). As to conditions: for Emax: read-out: % displacement (hIL-23R binding). On the technique in general: BRET reads energy transfer from a luciferase to a nearby fluorophore.

Data set [2] can be described thus: Peptide stability in simulated gastric fluid (SGF). Format: in vitro ADME. As to conditions: pig, pH 1.2, pepsin, 37° C. On the procedure: as §1, §2
Compounds with a SGF stability (after 4 h) above 70% are considered highly SGF stable. Compounds with a SGF stability (after 4 h) between 30-70% (including 30% and 70%) are considered moderately SGF stable. Compounds with a SGF stability (after 4 h) below 30% are considered SGF unstable. SGF stability values above 100% are due to assay uncertainty and indicate the compound has not degraded.

Data set [3] relates to IL-23 mediated STAT3 signalling (DB cells). As to the kind of experiment: Functional inhibition of IL-23 mediated STAT3 signalling (phospho-STAT3 Tyr705) in DB cells. Format: cell-based, human. As to conditions: for hIL-23 (pSTAT3) antagonist % inhibition: Table 3-2, maximal inhibitory response, EC80 of hIL-23. The procedure, abridged: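 DB cells preincubated 15 min with inhibitor at 37° C, 5% CO2, then stimulated 90 min with hIL-23 at EC80. Lysate phospho-STAT3 measured by MSD electrochemiluminescence. Signal normalized to IL-23-alone and buffer wells; IC50 and maximal inhibition from concentration–response curves.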

Where [4] appears, read: Table 3-2, EC80 of hIL-23, read-out: hIL-23 (pSTAT3) antagonist IC50.

pIC50: −log10 of the molar value. Like-named read-outs stand apart in the source and are kept apart here. *1 amine or outer side, *2 acyl side, *3 side chain or, on linkers, in order; H or OH if unused. Where a SMILES comes first, the peptide text is derived from it. Bridges are numbered along the chain shown (N, C = ends). [ ]: non-standard residue; d: D form. 2Nal = N[C@@H](Cc1ccc2ccccc2c1)C(=O)O; AEF = NCCOc1ccc(C[C@H](N)C(=O)O)cc1; X1 = O=C(Cc1ccc(CN[*:1])cc1)[*:2]; 3Pal = N[C@@H](Cc1cccnc1)C(=O)O; Cit = NC(=O)NCCC[C@H](N)C(=O)O; αMeL = CC(C)C[C@](C)(N)C(=O)O; Dab = NCC[C@H](N)C(=O)O Bounds are passed on as bounds.

The term pIC50 denotes the negative decadic logarithm of the IC50, by convention in mol/L. With `CC(C)C[C@@H]1NC(=O)[C@H](Cc2c[nH]c3ccccc23)NC(=O)[C@H](Cc2c[nH]c3ccccc23)NC(=O)[C@@H]2CSCC(=O)CSC[C@H](NC(=O)[C@H]([C@@H](C)O)NC(=O)[C@@H](NC(=O)CN)CSCC(=O)CSC[C@@H](C(=O)N[C@@H](CO)C(N)=O)NC1=O)C(=O)N[C@@H](Cc1c[nH]c3ccccc13)C(=O)N[C@@H](CCC(=O)O)C(=O)N2` (single isomer, unassigned) [I1 (isomer 3), H-GC(1a)TC(2a)WEC(2a)WWLC(1a)S-[NH2], reference compound], in data set [1], the share remaining at 1 h, 10 µM was 0% and the fraction remaining at 4 h, 10 µM was 0%. The Emax on human IL-23R came out at 105%. Moreover, in data set [2], the share remaining at 1 h, 10 µM is 92% and the share remaining at 4 h, 10 µM is 94%. In addition, the pIC50 in data set [3] (setting [4]) was < 6.00. The “hIL-23 (pSTAT3) antagonist % inhibition” value in data set [3] is on record as 83%.
As for `CSCC[C@H](NC(=O)[C@@H]1CSCC(=O)CSC[C@H](NC(=O)[C@@H](N)CCC(=O)O)C(=O)N[C@@H](Cc2c[nH]c3ccccc23)C(=O)N[C@@H](CC(C)C)C(=O)N[C@H]2CSCC(=O)CSC[C@H](NC(=O)[C@H](CC(N)=O)NC(=O)[C@H](CCCNC(=N)N)NC(=O)[C@H](Cc3ccc(O)cc3)NC(=O)[C@H](Cc3ccc(O)cc3)NC2=O)C(=O)N[C@@H](CC(N)=O)C(=O)N1)C(N)=O` (single isomer, unassigned) [I4 (isomer 3), H-EC(4a)WLC(5a)YYRNC(5a)NC(4a)M-[NH2], reference compound], in data set [1], the share remaining at 1 h, 10 µM was 0% and the share remaining at 4 h, 10 µM is 0%. The Emax on human IL-23R worked out at 84%. In data set [2], the fraction remaining at 1 h, 10 µM was 99% and the share remaining at 4 h, 10 µM is 99%. In data set [3] (setting [4]), the negative logarithm of the IC50 (pIC50) was < 6.00. Also, the “hIL-23 (pSTAT3) antagonist % inhibition” value in data set [3] came out at 23%.
Consider `CC(C)C[C@]1(C)NC(=O)[C@H](Cc2ccc3ccccc3c2)NC(=O)[C@H](Cc2ccc(OCCN)cc2)NC(=O)[C@@H]2CCNC(=O)CC[C@H](NC(=O)[C@H](CO)NC(=O)Cc3ccc(cc3)CNC(=O)CC[C@@H](C(=O)N[C@@H](CCN)C(=O)NCCCCc3cccnc3)NC1=O)C(=O)N[C@@H](Cc1c[nH]c3ccccc13)C(=O)N[C@@H](CCC(N)=O)C(=O)N2` [Compound 6, [4-Aminomethyl-phenylacetyl](1c)*SE(2c)WQ[Dab](2c)[Y(2-aminoethoxy)][2-Nal][2-Me-Leu]E(1c)[Dab]-[NH-(4-(pyridin-3-yl)butanyl)]], for which the figures for the share remaining at 1 h, 10 µM in data set [1] and in data set [2] were 97% and 110%, respectively. The pIC50 was 10.43 at human IL-23R; 8.49 in data set [3] (EC80 of hIL-23, read-out: IC50 (pSTAT3)); 8.49 in data set [3] (setting [4]). Besides, the Emax at human IL-23R is 103%. The fraction remaining at 4 h, 10 µM in data set [2] was 108%. Further, in data set [3], the “hIL-23 (pSTAT3) antagonist % inhibition” value amounted to 99%.
`CNC(=O)[C@H](Cc1cccnc1)NC(=O)[C@H](CCN)NC(=O)[C@@H]1CCC(=O)NCc2ccc(cc2)CC(=O)N[C@@H](CO)C(=O)N[C@H]2CCC(=O)NCC[C@H](NC(=O)[C@H](CCCNC(N)=O)NC(=O)[C@H](Cc3c[nH]c4ccccc34)NC2=O)C(=O)N[C@@H](Cc2ccc(OCCN)cc2)C(=O)N[C@@H](Cc2ccc3ccccc3c2)C(=O)N[C@@](C)(CC(C)C)C(=O)N1` [Compound 26, [4-Aminomethyl-phenylacetyl](1c)*SE(2c)W[Cit][Dab](2c)[Y(2-aminoethoxy)][2-Nal][2-Me-Leu]E(1c)[Dab][3-(3-Pyridyl)-Ala]-[NHMe]] ([X1]SEW[Cit][Dab][AEF][2Nal][αMeL]E[Dab][3Pal]-NHMe; lactam 3-6, N-10): the share remaining at 1 h, 10 µM in data set [1] is 89%. For the same compound, in data set [2], the amount remaining at 1 h, 10 µM is 105% and the fraction remaining at 4 h, 10 µM was 99%. Besides, in data set [3] (setting [4]), the pIC50 was 10.38. For the same compound, the “hIL-23 (pSTAT3) antagonist % inhibition” value in data set [3] is 100%.
Take `CCCC[C@H](NC(=O)[C@@H]1CCC(=O)NCc2ccc(cc2)CC(=O)N[C@@H](CO)C(=O)N[C@H]2CCC(=O)NCC[C@H](NC(=O)[C@H](CCC(N)=O)NC(=O)[C@H](Cc3c[nH]c4ccccc34)NC2=O)C(=O)N[C@@H](Cc2ccc(OCCN)cc2)C(=O)N[C@@H](Cc2ccc3ccccc3c2)C(=O)N[C@@](C)(CC(C)C)C(=O)N1)C(=O)N[C@@H](Cc1cccnc1)C(=O)NC` [Compound 32, [4-Aminomethyl-phenylacetyl](1c)*SE(2c)WQ[Dab](2c)[Y(2-aminoethoxy)][2-Nal][2-Me-Leu]E(1c)[Nle][3-(3-Pyridyl)-Ala]-[NHMe]]: the amount remaining at 1 h, 10 µM in data set [1] was 94%. Also, the Emax on human IL-23R stood at 98%. The share remaining at 4 h, 10 µM in data set [2] was 90%.
As to `CNC(=O)[C@H](Cc1cccnc1)NC(=O)C1(NC(=O)[C@@H]2CCC(=O)NCc3ccc(cc3)CC(=O)N[C@@H](CO)C(=O)N[C@H]3CCC(=O)NCC[C@H](NC(=O)[C@H](CCC(N)=O)NC(=O)[C@H](Cc4c[nH]c5ccccc45)NC3=O)C(=O)N[C@@H](Cc3ccc(OCCN)cc3)C(=O)N[C@@H](Cc3ccc4ccccc4c3)C(=O)N[C@@](C)(CC(C)C)C(=O)N2)CCOCC1` [Compound 35, [4-Aminomethyl-phenylacetyl](1c)*SE(2c)WQ[Dab](2c)[Y(2-aminoethoxy)][2-Nal][2-Me-Leu]E(1c)[THP][3-(3-Pyridyl)-Ala]-[NHMe]], the amount remaining at 4 h, 10 µM in data set [1] was 96%. At human IL-23R, the pIC50 is 10.41 and the Emax came to 101%. For the same compound, the amount remaining at 1 h, 10 µM in data set [2] is 101%.
On to `CNC(=O)[C@H](Cc1cccnc1)NC(=O)[C@H](CO)NC(=O)[C@@H]1CCC(=O)NCc2ccc(cc2)CC(=O)N[C@@H](C)C(=O)N[C@H]2CCC(=O)NCC[C@H](NC(=O)[C@H](CCC(N)=O)NC(=O)[C@H](Cc3c[nH]c4ccccc34)NC2=O)C(=O)N[C@@H](Cc2ccc(OCCN)cc2)C(=O)N[C@@H](Cc2ccc3ccccc3c2)C(=O)N[C@@](C)(CC(C)C)C(=O)N1` [Compound 40, [4-Aminomethyl-phenylacetyl](1c)*AE(2c)WQ[Dab](2c)[Y(2-aminoethoxy)][2-Nal][2-Me-Leu]E(1c)S[3-(3-Pyridyl)-Ala]-[NHMe]] ([X1]AEWQ[Dab][AEF][2Nal][αMeL]ES[3Pal]-NHMe; lactam 3-6, N-10), for which the amount remaining at 1 h, 10 µM in data set [1] was 93%. Moreover, the Emax on human IL-23R came to 100%. Further, in data set [2], the amount remaining at 4 h, 10 µM is 89%.

The values are drawn from patent publication US20260327264A1, “PEPTIDE INHIBITORS OF INTERLEUKIN-23 RECEPTOR” (Zealand Pharma A/S, priority 2023, published 2026).
